In patent US6911468B2, “Tyrosine phosphatase inhibitors” (Takeda Chemical Industries, Ltd., priority 2000, dated 2005) one finds IC50 data, which are given here for 24 molecules.

This assay has as its target T1, PTP1B (Homo sapiens, UniProt P18031).
T1 construct: in order to express 1-321 amino acid region encoding enzyme active domain of PTP1B; made in house; host or cells: E. coli BL21 DE3 pLysS
T1 sequence (P18031 1-321): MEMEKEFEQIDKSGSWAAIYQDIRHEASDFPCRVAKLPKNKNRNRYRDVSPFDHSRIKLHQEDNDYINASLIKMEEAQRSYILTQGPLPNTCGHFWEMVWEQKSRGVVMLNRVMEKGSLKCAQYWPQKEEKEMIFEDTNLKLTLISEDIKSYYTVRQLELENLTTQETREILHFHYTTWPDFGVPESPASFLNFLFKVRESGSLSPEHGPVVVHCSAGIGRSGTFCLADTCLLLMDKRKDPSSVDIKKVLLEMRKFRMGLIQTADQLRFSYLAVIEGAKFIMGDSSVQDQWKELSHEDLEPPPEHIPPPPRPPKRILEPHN
The assay can be described thus: Measurement of PTP1B Inhibitory Activity (dephosphorylation of p-nitrophenylphosphate, absorbance at 405 nm). Particulars: PTP1B enzyme active domain (1-321 amino acid, 6 histidine residues at C-terminal), pNPP substrate, pH 6.5, 37° C. for 1 hour. In kind it is biochemical. As to the method: Based on the sequence of human PTP-1B registered in Genbank (M31724) database, primer 1 and primer 2 were synthesized, and PTP1B cDNA was amplified from human skeletal muscle cDNA library (Clonetech, Inc. HL5002a) according to PCR method using these primers. The cycle of reactions at 98° C. for 10 seconds, at 58° C. for 30 seconds and at 72° C. for 90 seconds was repeated 35 cycles. The PCR reaction product (1322 bp) was cloned to pT7 Blue-T vector (Novagen, Inc.) to identify the base sequence.
Human PTP 1B cDNA (1322 bp) (100 ng) was amplified with primer 3 and primer 4 in order to express 1-321 amino acid region encoding enzyme active domain of PTP1B. The PCR reaction product (976 bp) was cloned to pT7 Blue-T vector (Novagen, Inc.) to identify the base sequence.
The pT7 Blue-T vector-human PTP1B cDNA (976 bp) was cleaved with restriction enzymes NdeI and SalI (Takara Shuzo Co., Ltd.) and subjected to electrophoresis using 0.7% agarose gel, and a 969 bp fragment was excised and purified. The fragment was introduced into pET32a (+) vector (Novagen, Inc.) cleaved with restriction enzymes NdeI and XhoI (Takara Shuzo Co., Ltd.), to constitute a vector pET32a (+)-human PTP1B cDNA (969 bp), which expresses PTP1B (321 amino acid) with 6 histidine residues binded to a C-terminal thereof under a control of T7 lac promotor.
E.coli BL21 DE3 pLysS (Novagen, Inc.) was transformed with the pET32a (+)-human PTP 1B cDNA (969 bp) to give an ampicillin (50 μg/ml) resistant bacterium. This was shake cultured at 37° C. using 5L of 2xYT medium (ampicillin (50 μg/ml)). When OD600nm reached to 0.5, IPTG (Isopropyl b-D-Thiogalactoside) was added to the culture medium so as to be 1 mM in order to induce the expression of protein, and this medium was further cultured at 37° C. overnight. The bacterium was collected by centrifugation (8000 rpm, 10 minutes, 4° C.).
The bacterium was suspended in lysis buffer (50 ml) (20 mM Tris HCl (pH 8.0), 0.5 M NaCl, 1 mM PMSF, 5 mM benzamidine, Lysozyme 5 mg) and crushed by sonication. To the supernatant after centrifuging (12000 rpm, 10 minutes, 4° C.) was added imidazole so as to be 50 mM and the mixture was mixed with His Bind resin (Novagen, Inc.) binded with Ni ion (4° C., overnight). The mixture was washed with 200 ml of (20 mM Tris HCl (pH 8.0), 0.5 M NaCl, 1 mM PMSF, 5 mM benzamidine, 50 mM imidazole), eluted with (20 mM Tris HCl (pH 8.0), 0.5 M NaCl, 1 mM PMSF, 5 mM benzamidine, 400 mM imidazole) and concentrated by centrifugation using Ultrafree-15 Biomax-50 (MILLIPORE Corp.) (11 mg/ml, 4ml). The purified protein (PTP1B) was identified by Western blotting method using SDS-PAGE, coomassie Blue stain and anti-PTP1B antibody (UBI Inc.).
The PTP1B inhibitory activity of the test compound was evaluated by measuring the ability of the test compound to dephosphorylate p-nitrophenylphosphate (pNPP) (a change of the absorbance at 405 nm).
To a buffer for measurement of the activity (0.1 M sodium acetate (pH 6.5), 1 mM EDTA, 10 mM DTT) (10 ml) was added PTP1B enzyme solution (2 μl) and the mixture was added to each well of a 96-well microtiter plate (100 μl each). A solution of the test compound in DMSO (10 μl) and 2 mM pNPP/the buffer for measurement of the activity (90 μl) were then added to each well, and the absorbance at 405 nm was measured. After keeping at 37° C. for 1 hour, the absorbance was measured again to evaluate a change of the absorbance. Regarding the change of the absorbance in the absence of the test compound as 100%, the concentration of the compound necessary for 50% inhibition (IC50 value) was calculated.

As to `Cc1ccc(-c2ccc(/C=C/C(=O)O)cc2)n1-c1ccc(/C=C/C(=O)O)cc1` [Example 4, (2E)-3-[4-(1-{4-[(1E)-2-Carboxyethenyl]phenyl}-5-methyl-1H-pyrrol-2-yl)phenyl]-2-propenoic acid], the IC50 (as a rule, the point on the concentration scale where inhibition reaches its midpoint) amounted to 6.48 µM.
Turning to `Cc1ccc(-c2ccc(O[C@H](Cc3ccccc3)C(=O)O)cc2)n1Cc1cccc(Oc2ccccc2)c1` [Example 54, (2R)-2-{4-[1-(3-phenoxybenzyl)-5-methyl-1H-pyrrol-2-yl]phenoxy}-3-phenylpropanoic acid], the IC50 came to 0.31 µM. This IC50 lies about 21-fold lower than the previous one.
For the molecule `Cc1ccc(-c2ccc(O[C@H](Cc3ccccc3)C(=O)O)cc2)n1-c1ccc(Cl)cc1` [Example 44, (2R)-2-{4-[1-(4-chlorophenyl)-5-methyl-1H-pyrrol-2-yl]phenoxy}-3-phenylpropanoic acid], the midpoint of inhibition, the IC50, lay at 0.33 µM. The IC50 values of the last two molecules are within 1.5-fold of each other.
Consider `O=C(O)[C@@H](Cc1ccccc1)Oc1ccc(-c2cccn2-c2ccc(C(F)(F)F)cc2)cc1` [Example 42, (2R)-2-{4-[1-(4-Trifluoromethylphenyl)-1H-pyrrol-2-yl]phenoxy}-3-phenylpropanoic acid], for which half-maximal inhibition (IC50) required 4.9 µM. Against the preceding molecule, the IC50 is about 15-fold higher.
On to `CCCc1ccc(-c2ccc(O[C@H](Cc3ccccc3)C(=O)O)cc2)n1-c1ccc(Br)cc1` [Example 34, (2R)-2-{4-[1-(4-Bromophenyl)-5-propyl-1H-pyrrol-2-yl]phenoxy}-3-phenylpropanoic acid], for which the IC50 turned out to be 1.1 µM.
As for `CCCCCCCCn1c(C)ccc1-c1ccc(O[C@H](Cc2ccccc2)C(=O)O)cc1` [Example 58, (2R)-2-[4-(5-Methyl-1-octyl-1H-pyrrol-2-yl)phenoxy]-3-phenylpropanoic acid], half-maximal inhibition (IC50) required 0.34 µM.
As to `O=C(O)[C@@H](Cc1ccccc1)Oc1ccc(-c2cccn2-c2ccc(Br)cc2)cc1` [Example 2, (2R)-2-{4-[1-(4-Bromophenyl)-1H-pyrrol-2-yl]phenoxy}-3-phenylpropanoic acid], half-maximal inhibition (IC50) was put at 0.89 µM.
On to `Cc1ccc(-c2ccc(O[C@H](Cc3ccccc3)C(=O)O)cc2)n1Cc1ccccc1` [Example 48, (2R)-2-[4-(1-Benzyl-5-methyl-1H-pyrrol-2-yl)phenoxy]-3-phenylpropanoic acid], for which half-maximal inhibition (IC50) was put at 0.36 µM.
With `Cc1ccc(-c2ccc(O[C@H](Cc3c[nH]c4ccccc34)C(=O)O)cc2)n1-c1ccc(Br)cc1` [Example 32, (2R)-2-{4-[1-(4-Bromophenyl)-5-methyl-1H-pyrrol-2-yl]phenoxy}-3-(1H-indol-3-yl)propanoic acid], the half-inhibitory concentration (IC50) was 2.1 µM.
In the case of `CCCCCCCCc1ccc(-n2c(C)ccc2-c2ccc(O[C@H](Cc3ccccc3)C(=O)O)cc2)cc1` [Example 94, Sodium (2R)-2-([4-[1-(4-octylphenyl)-5-methyl-1H-pyrrol-2-yl]phenyl]oxy)-3-phenylpropanoate], the concentration for half-maximal inhibition (IC50) is 0.09 µM.
For the molecule `Cc1ccc(-c2ccc(O[C@H](Cc3ccccc3)C(=O)O)cc2)n1CCc1ccc(Br)cc1` [Example 52, (2R)-2-(4-{1-[2-(4-bromophenyl)ethan-1-yl]-5-methyl-1H-pyrrol-2-yl}phenoxy)-3-phenylpropanoic acid], 0.31 µM corresponded to half-maximal inhibition (IC50).
Under `Cc1ccc(-c2ccc(O[C@@H](Cc3ccccc3)C(=O)O)cc2)n1-c1ccc(Br)cc1` [Example 50, (2S)-2-{4-[1-(4-Bromophenyl)-5-methyl-1H-pyrrol-2-yl]phenoxy}-3-phenylpropanoic acid] stands 0.94 µM.
For the molecule `CCCCCCCCCCn1c(C)ccc1-c1ccc(O[C@H](Cc2ccccc2)C(=O)O)cc1` [Example 62, (2R)-2-[4-(1-Decyl-5-methyl-1H-pyrrol-2-yl)phenoxy]-3-phenylpropanoic acid], the IC50 was 0.21 µM.
Consider `Cc1ccc(-c2ccc(-c3ccc(O[C@H](Cc4ccccc4)C(=O)O)cc3)cc2)n1-c1ccc(Br)cc1` [Example 10, (2R)-2-({4′-[1-(4-Bromophenyl)-5-methyl-1H-pyrrol-2-yl][1,1′-biphenyl]-4-yl}oxy)-3-phenylpropanoic acid], for which inhibition was half-maximal at 0.34 µM (IC50).
As to `O=C(O)[C@@H](Cc1ccccc1)Oc1ccc(-n2cccc2-c2ccc(Br)cc2)cc1` [Example 18, (2R)-2-{4-[2-(4-bromophenyl)-1H-pyrrol-1-yl]phenoxy}-3-phenylpropanoic acid], the IC50 was determined as 1.01 µM.
`O=C(O)[C@@H](Cc1ccccc1)Oc1ccc(-c2cccn2-c2ccccc2)cc1` [Example 36, (2R)-2-[4-(1-Phenyl-1H-pyrrol-2-yl)phenoxy]-3-phenylpropanoic acid] had an IC50 of 1.43 µM.
With `CCCCCCCCCCCCn1c(C)ccc1-c1ccc(O[C@H](Cc2ccccc2)C(=O)O)cc1` [Example 56, (2R)-2-[4-(1-Dodecyl-5-methyl-1H-pyrrol-2-yl)phenoxy]-3-phenylpropanoic acid] the figure was 0.13 µM.
With `O=C(O)[C@@H](Cc1ccccc1)Oc1ccc(-c2cccn2-c2ccc(Cl)cc2)cc1` [Example 40, (2R)-2-{4-[1-(4-Chlorophenyl)-1H-pyrrol-2-yl]phenoxy}-3-phenylpropanoic acid] the figure was 1.2 µM; with `Cc1ccc(-n2cccc2-c2ccc(O[C@H](Cc3ccccc3)C(=O)O)cc2)cc1` [Example 38, (2R)-2-{4-[1-(4-Methylphenyl)-1H-pyrrol-2-yl]phenoxy}-3-phenylpropanoic acid], 1.6 µM.
`Cc1ccc(-c2cc(Br)c(O[C@H](Cc3ccccc3)C(=O)O)c(Br)c2)n1-c1ccc(Br)cc1` [Example 8, (2R)-2-{2,6-Dibromo-4-[1-(4-bromophenyl)-5-methyl-1H-pyrrol-2-yl]phenoxy}-3-phenylpropanoic acid] had an IC50 of 0.38 µM.
Under `CCc1ccc(-c2ccc(O[C@H](Cc3ccccc3)C(=O)O)cc2)n1-c1ccc(Br)cc1` [Example 20, (2R)-2-{4-[1-(4-bromophenyl)-5-ethyl-1H-pyrrol-2-yl]phenoxy}-3-phenylpropanoic acid] stands 0.53 µM.
Turning to `Cc1cc(-c2ccccc2)c(-c2ccc(O[C@H](Cc3ccccc3)C(=O)O)cc2)n1-c1ccc(Br)cc1` [Example 30, (2R)-2-{4-[1-(4-Bromophenyl)-5-methyl-3-phenyl-1H-pyrrol-2-yl]phenoxy}-3-phenylpropanoic acid], the half-inhibitory concentration (IC50) worked out at 0.72 µM.
Regarding `Cc1cc(C)n(-c2ccc(Br)cc2)c1-c1ccc(O[C@H](Cc2ccccc2)C(=O)O)cc1` [Example 26, (2R)-2-{4-[1-(4-Bromophenyl)-3,5-dimethyl-1H-pyrrol-2-yl]phenoxy}-3-phenylpropanoic acid], the IC50 is 0.42 µM. This IC50 is about 1.7-fold lower than that of the molecule before.
With `CCCCCCCCCCCCCn1c(C)ccc1-c1ccc(O[C@H](Cc2ccccc2)C(=O)O)cc1` [Example 66, (2R)-2-[4-(5-Methyl-1-tridecyl-1H-pyrrol-2-yl)phenoxy]-3-phenylpropanoic acid] the figure was 0.17 µM.
